According to publication PMC9929129, “Towards Translation of PqsR Inverse Agonists: From In Vitro Efficacy Optimization to In Vivo Proof‐of‐Principle” (Advanced Science, 2023):
pIC50: −log10 of the molar value. “Also recorded” adds a separate entry of the source.

Key:
P. aeruginosa PAO1 = assay: Biofilm-eradication assay with amikacin; assay type: cell-based, Pseudomonas aeruginosa; conditions: 10 × 10^−6 M 24 plus 4 µg/mL amikacin
Experimental: compound, 150 µL 1% DMSO in LB. The inoculator was wrapped with parafilm again and incubated for another 24 h. After that, the peg lid was transferred for 1 min to a 96-well plate containing 200 µL sterile MΩ in each well, followed by another 96 well plate containing 200 µL LB in each well. The system was sealed with parafilm and sonicated for 15 min in an ultrasonic bath with tray.
Immediately after sonication, 20 µL were removed from each well using a multi-channel pipette and diluted 1:10 (stepwise, until 10-6). After each dilution step, 10 µL were directly transferred to cetrimide agar plates (spot plating) using fresh pipette tips. Agar plates were incubated for 16 h at 37 °C and then used for cell counting. Statistical analysis was performed with GraphPad Prism 8.4.1 (GraphPad Software, San Diego, CA) using one-way ANOVA with Tukey’s multiple comparisons test.
Statistical outliers were determined using the Nalimov test, applying a 95% cut-off.
1.2.5 Biofilm-eradication assay
The assay was carried out as described in section 1.2.4, with the following modifications: In the first incubation step only QSI or DMSO (DMSO control and tobramycin control) were added to the wells at time 0. The well plate used for the second incubation step contained QSI/DMSO as before, in presence/absence of tobramycin/amikacin. […]

[1] = biological target: T1, HTR2B Human 5-Hydroxytryptamine GPCR (Homo sapiens, UniProt P41595); assay: HTR2B GPCR calcium assay, 86-0030P-2091AN; assay type: cell-based
T1 construct: 86-0030P-2091AN
Source text: 1.4.2 Further functional off-target assays (Eurofins)
Table S8. Compound 24 was further tested in the following functional assays at Eurofins.
ASSAY NAME ESTIMATED IC50 [µM] […]
(§1) FLIPR Assay expressed in HEK293 cells
(§2) GABAA α5/β3/γ2 ionotropic receptor (human GABRA5, GABRB3, >30
(§3) and GABRG2 genes, expressed in HEK293 cells

PA14 biofilm = assay: eDNA release assay; assay type: cell-based; conditions: Pseudomonas aeruginosa; PA14, propidium iodine staining
Experimental: The eDNA release assay was performed as described previously[3] with slight modifications. The impact on eDNA was assessed by incubation of biofilm with propidium iodine solution (0.025 mg mL−1) for 3 h and detection of specific florescence at 620 nm after a thorough washing step with […]
1.2.7 P. aeruginosa clinical isolates from bronchiectasis patients – phenotypic characterization and inhibition of pyocyanin production
Clinical isolates. The P. aeruginosa strains had been isolated from respiratory secretions collected from patients with bronchiectasis seen at the bronchiectasis out-patient clinic of Hannover Medical School. The clinical isolates were genotyped by a custom-made multilocus microarray.[4] The hexadecimal SNP genotype was converted into the multilocus sequence genotype (MLST)[5] by comparison with the sequence of the seven selected housekeeping genes in genome sequences of the same clone deposited in our in-house[6] or the International Pseudomonas Genome Database.[7]

[2] = Mouse maximum tolerated dose (MTD) study; assay type: in vivo, NMRI mice
Experimental: 1.4.6 Mouse Maximum tolerated dose (MTD) study (Aurigon)
The maximum tolerated dose of 24 in NMRI mice was conducted and analyzed at CRO ATRC Aurigon Toxicological Research Center Ltd, Hungary. The study was conducted in accordance with Standard Operating Procedures of ATRC and the requirements of EEC Directive 2001/83/EC of the European Parliament and of the Council of November 6, 2001 on the Community Code relating to Medicinal Products for human use (Official Journal L -311,28/11/2004, p.67–128) as amended by EEC Directive 2004/27/EC of the European Parliament and the Council of March 31, 2004 amending Directive 2001/83/EC on the Community code relating to medicinal products for human use (Official Journal L - 136, 30/04/2004, p. 34-57), ICH Guideline M3(R2) “Guidance on Nonclinical Safety Studies for the Conduct of Human Clinical Trials and Marketing Authorization for Pharmaceuticals”, ICH Guideline S3A “Toxicokinetics: The Assessment of Systemic Exposure in Toxicity Studies”, OECD Guideline for the Testing of Chemicals: Toxicokinetics, (OECD 417, 2010). This study was conducted in compliance with the principles of Hungarian Act 1998: XXVIII regulating animal protection (latest modified by Act 2011 CLVIII) and in Government Decree 40/2013 on animal experiments. Handling and care of the animals will be conducted according to the Guide for the Care and Use of Laboratory Animals, NRC, […]
Animals were 6 weeks old and weighed 27–34 g. 24 was applied subcutaneously in a formulation […]
48 h. As no clinical findings were observed, 30 mg/kg was then applied to the next group. Likewise, 60 mg/kg were applied 48 h after. Mortality was observed twice a day. Clinical observation was performed directly after dosing, 1 h, 2 h, 4 h, 24 h and 48 h after administration. Body weight was registered prior to treatment and daily after the dosing for 48 h. For serum concentration determination, 100 μL blood were collected from each animal at 0.5 h and 4 h time points after the administration, processed to plasma and analyzed using HPLC-MS/MS at HZI. Each group consisted of 5 male and 5 female mice, 2 of which were used for blood collection.

CYP1A = CYP1A (Homo sapiens, UniProt P05177); assay: Cytochrome P450 inhibition assay, CYP1A; assay type: in vitro ADME
Experimental: 1.4.4 Pharmacokinetic and off-target functional assays (Cyprotex)
Compound 24 was assayed at Cyprotex in functional assays for interference with important off-targets as well as important pharmacokinetic parameters. With the exception of plasma protein binding, a dose-response relationship was studied in order to calculate IC50 values.
Table S10. Information on in vitro ADMET assays performed at Cyprotex. […]
An increase in the number of colonies of at least two-fold over baseline (mean + SD of the vehicle control) and a dose response indicate a positive response. An […]
different from the vehicle control.
Where indicated, S9 fraction from the livers of Aroclor 1254-treated rats were included in the incubation at a final concentration of 4.5%. A NADPH-regenerating system was also included to ensure a steady supply of reducing equivalents.

Kv1.3 potassium channel = biological target: T2, Kv1.3 potassium channel (Homo sapiens, UniProt P22001); assay: Ion channel profiling at Charles River: Kv1.3; assay type: cell-based; conditions: expressed in CHO cells; read-out: ESTIMATED IC50
T2 construct: host or cells: CHO cells
Experimental: 1.4.3 Ion Channel Profiling at Charles River
Table S9. Compound 24 was tested against the following ion channels at Charles River Laboratories.
ASSAY TYPE ION CHANNEL AND EXPRESSION SYSTEM ESTIMATED […]
ScreenPatch Assay Kv1.3 potassium channel (human KCNA3 gene) expressed in CHO […]
as §1, §2, §3

T2 sequence (P22001 whole entry): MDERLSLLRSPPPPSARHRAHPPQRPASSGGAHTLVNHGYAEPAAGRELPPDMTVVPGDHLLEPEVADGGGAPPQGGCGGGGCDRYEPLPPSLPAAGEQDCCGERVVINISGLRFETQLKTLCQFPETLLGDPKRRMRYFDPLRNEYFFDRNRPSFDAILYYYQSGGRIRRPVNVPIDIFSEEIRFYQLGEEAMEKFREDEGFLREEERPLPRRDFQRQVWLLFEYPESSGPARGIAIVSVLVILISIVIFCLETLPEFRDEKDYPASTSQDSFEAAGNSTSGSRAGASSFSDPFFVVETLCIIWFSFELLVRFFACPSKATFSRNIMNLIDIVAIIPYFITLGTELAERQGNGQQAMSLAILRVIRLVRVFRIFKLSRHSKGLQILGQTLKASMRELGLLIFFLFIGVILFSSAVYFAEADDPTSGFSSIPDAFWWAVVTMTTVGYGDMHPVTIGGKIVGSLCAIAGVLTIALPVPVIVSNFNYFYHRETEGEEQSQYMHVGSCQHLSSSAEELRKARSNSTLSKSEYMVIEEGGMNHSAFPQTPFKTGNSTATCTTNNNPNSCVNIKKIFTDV
Chain of CYP1A (P05177 2-516): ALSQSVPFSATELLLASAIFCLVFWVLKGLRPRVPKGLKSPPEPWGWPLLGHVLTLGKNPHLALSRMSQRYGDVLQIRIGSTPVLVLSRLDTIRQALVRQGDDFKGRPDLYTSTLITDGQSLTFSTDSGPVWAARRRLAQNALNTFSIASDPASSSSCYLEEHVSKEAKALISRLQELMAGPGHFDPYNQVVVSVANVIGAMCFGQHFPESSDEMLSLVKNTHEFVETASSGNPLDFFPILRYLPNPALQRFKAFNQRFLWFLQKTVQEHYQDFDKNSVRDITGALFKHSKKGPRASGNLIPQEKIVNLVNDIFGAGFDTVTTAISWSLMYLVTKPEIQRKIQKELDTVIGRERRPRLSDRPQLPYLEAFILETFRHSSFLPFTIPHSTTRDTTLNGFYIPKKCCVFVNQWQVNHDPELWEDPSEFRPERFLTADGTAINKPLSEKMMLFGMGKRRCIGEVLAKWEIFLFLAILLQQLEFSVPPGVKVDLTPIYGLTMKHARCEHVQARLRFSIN
T1 sequence (P41595 whole entry): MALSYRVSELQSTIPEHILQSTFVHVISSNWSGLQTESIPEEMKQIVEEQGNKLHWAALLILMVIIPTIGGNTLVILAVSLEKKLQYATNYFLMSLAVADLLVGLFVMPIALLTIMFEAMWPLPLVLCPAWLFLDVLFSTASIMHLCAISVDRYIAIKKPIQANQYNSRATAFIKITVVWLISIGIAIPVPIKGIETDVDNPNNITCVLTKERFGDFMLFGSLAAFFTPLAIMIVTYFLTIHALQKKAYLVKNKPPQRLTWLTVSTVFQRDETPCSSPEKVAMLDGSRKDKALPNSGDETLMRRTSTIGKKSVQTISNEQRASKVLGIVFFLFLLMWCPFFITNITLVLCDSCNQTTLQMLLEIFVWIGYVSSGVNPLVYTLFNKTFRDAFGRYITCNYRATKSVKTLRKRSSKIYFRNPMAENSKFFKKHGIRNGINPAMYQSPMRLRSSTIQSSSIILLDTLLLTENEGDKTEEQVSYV

With `CC(C)Oc1ccc(-c2ncc(CNc3ccnc(C(F)(F)F)c3)cn2)cc1Cl` [Compound 24] the “Effect on amikacin activity against PAO1 biofilm” value (P. aeruginosa PAO1) was “significant boost in activity; also recorded: boosted”, the pIC50 [1] was under 5.00 and the pIC50 (PA14 biofilm) was 6.46. For the same compound, the clinical findings ([2]; 60 mg kg^−1 subcutaneous, slight, transient, at 2 and 4 h) was “piloerection and decreased activity (3 of 10 mice)”, the “mortality or loss of body weight” value ([2]; 10, 30, and 60 mg kg^−1 subcutaneous, during 48 h) was “no mortality or loss of body weight” and the clinical findings ([2]; 10 and 30 mg kg^−1 subcutaneous) was “devoid of any clinical findings”. The “tolerability in male and female mice” value ([2]; up to 60 mg kg^−1 subcutaneous) was “well tolerated”, the pIC50 (CYP1A) was under 4.60 and the pIC50 (Kv1.3 potassium channel) was under 4.52.
